The record followed here is PubChem BioAssay (NCI).

Test in all cases: inhibition of tumour cell growth, NCI panel, 48 h
The test system of assay [1] is 786-0 renal.
Assay [2] concerns DMS 273 small cell lung.
Assay [3] relates to KM12 colon.
The subject of assay [4] is LXFL 529 NSCLC.
For assay [5], the system named is M14 melanoma.
For assay [6], the system named is SF-539 CNS.
The subject of assay [7] is SNB-75 CNS.
In assay [8] the test system is UACC-257 melanoma.
Assay [9] deals with HS 578T breast.
Assay [10] has as its system T-47D breast.

Where “and” joins values, the source holds several entries; their conditions need not be identical. Equal values may be shown once.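 A five-concentration, 48-hour dose response in 96-well plates underlies each endpoint, interpolated linearly between surrounding concentrations. Abbreviation: GI50, concentration required for 50% inhibition of growth. At the TGI there is no net growth.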

For the molecule `Cc1cc2c(cc1C)[n+](=O)c(C(=O)C/C(=N/NC(=O)c1ccccc1O)C(=O)Nc1ccccc1C(C)C)c(C)n2[O-]`, the TGI in assay [1], in [2], in [3], in [4], in assay [5] and in assay [6] was > 100 µM each time. The TGI in [7] and in assay [8] was > 100 µM each time.
As for `N#CC1(c2nc3ccccc3o2)C(=O)C(=O)N(C2C3CC4CC(C3)CC2C4)C(=O)C1=O` (stereo not given), the TGI in assay [1], in [2], in assay [3], in assay [4], in assay [5] and in [6] was > 100 µM each time. Also, the TGI in [7] and in [8] was > 100 µM each time.
Take `O=c1[nH]c2ccccc2cc1C(Cl)=C(Cl)Cl`: the TGI in assay [1], in assay [2], in [3], in assay [4], in assay [5] and in assay [6] was > 100 µM throughout. Also, the TGI in assay [7] and in [8] was > 100 µM each time.
Take `Cn1cc(NC(=O)c2cc(NC(=O)CCCCCCCCCCC(=O)Nc3cc(C(=O)Nc4cc(C(=O)NCCC(=N)N)n(C)c4)n(C)c3)cn2C)cc1C(=O)NCCC(=N)N`: the TGI in assay [1], in assay [2], in assay [3], in assay [4], in [5] and in assay [6] was > 100 µM in each case. Moreover, the TGI in assay [7] and in assay [8] was > 100 µM each time.
With `Cc1ccc(-c2c(N)nc(NC#N)nc2CCC(=O)Nc2ccccc2[N+](=O)[O-])cc1`, the TGI in assay [1], in assay [2], in [3], in [4], in assay [5] and in assay [6] was > 100 µM in each case. Further, the TGI in [7] and in assay [8] was > 100 µM in each case.
As for `O=c1cc(-c2cccc(F)c2)[nH]c2cc3c(cc12)OCO3`, the GI50 in assay [1] was 0.346 µM; in assay [3], 0.332 µM; in assay [5] it was 0.286 µM; in [6], 0.133 µM. For the same molecule, the TGI is 75 µM and 17.7 µM in [1]; 75 µM in assay [2]; 0.181 µM in [9]; 75 µM in assay [4]; 75 µM and 23.8 µM in assay [5]; 0.301 µM and 0.247 µM in assay [6]. Besides, the TGI in assay [10] and in assay [8] was > 100 µM throughout.
Consider `COc1cc2c(c3c1C=CCO3)C(=O)c1ccccc1C2=O`, for which the TGI in assay [1], in assay [2], in [3], in [4], in [5] and in assay [6] was > 100 µM in each case. Besides, the TGI in assay [7] is > 100 µM; in assay [8] it was 68.9 µM.
With `COC(=O)C(=O)CC(=O)CCn1ncc(Cl)c(Cl)c1=O`, the TGI was 43.6 µM in [1]; 30.3 µM in assay [2]; 87.5 µM in assay [9]; > 74.5 µM in assay [3]; 24.2 µM in [4]; 26.7 µM in assay [5]. The TGI in [6] was found to be 35.2 µM; in [7], 35.6 µM; in assay [10] it was 40.2 µM; in assay [8], 25.8 µM. Moreover, the GI50 in [9] was 27.3 µM; in [10], 21.2 µM.
As for `CCCCCCCCCCCCC(=O)OC(c1cnco1)c1nc(C(O)CC(O)C(O)C(C)O)co1` (stereo not given), the GI50 in [1] is 1.02 µM; in [3], 0.359 µM; in [5], 0.794 µM; in assay [6] it was 3.73 µM; in [7] it was 2.91 µM; in assay [8] it was 5.16 µM. Besides, the TGI was > 100 µM in [1]; > 38.6 µM in assay [2]; 21.9 µM in [3]; > 100 µM in [4]; > 63.8 µM in [5]; > 100 µM in [6]. For the same molecule, the figures for the TGI in assay [7] and in assay [8] were 15.9 µM and > 83 µM, respectively.
On to `CCOC(=O)C1=C(C)Nc2ccccc2S1`, for which the TGI in assay [1], in assay [2], in assay [3], in assay [4], in assay [5] and in assay [6] was > 100 µM in each case. Besides, the TGI in [7] and in [8] was > 100 µM each time.
Take `O=[N+]([O-])[C@@H]1C2C=CC(C2)[C@H]1Cl` (stereo not given in full): the TGI in assay [1], in assay [2], in assay [3], in assay [4], in [5] and in assay [6] was > 100 µM in each case. Also, the TGI in [7] and in assay [8] was > 100 µM each time.
In the case of `CCOc1ccc(NC(=O)CC2Sc3ccccc3NC2=O)cc1` (stereo not given), the TGI is 39.3 µM in assay [1]; > 100 µM in [2]; 95.2 µM in [3]; > 100 µM in assay [4]; > 100 µM in [5]; > 100 µM in [6]. For the same molecule, the TGI in [7] was 95 µM; in [8], > 100 µM.
